From PubChem BioAssay AID330 (DTP/NCI, 2004) come the findings set out here.

“And” between values parts separate entries of the source, which are not always exact repeats. Equal entries are not always repeated. Inconclusive results and toxic doses are left out.

In the assay the test system is P388 leukemia ip, CD2F1 mice, survival T/C. In words: NCI In Vivo Anticancer Drug Screen. Data for tumor model P388 Leukemia (intraperitoneal) in CD2F1 (CDF1) mice. The following applies: endpoint: median survival time, higher = longer survival. In a few lines: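 Mice carrying the transplanted tumor received test compound or vehicle. Survival was recorded in each group, and the value is the treated-group measurement divided by that of the vehicle-treated control group.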

[1] abbreviates: dose: 50.0 mg/kg/injection, schedule: Q01DX009 (ip), vehicle: saline with Tween-80.
The mark [2] stands for this setting: dose: 100.0 mg/kg/injection, schedule: Q01DX009 (ip), vehicle: saline with Tween-80.
The mark [3] stands for this setting: dose: 200.0 mg/kg/injection, schedule: Q01DX009 (ip), vehicle: saline with Tween-80.
[4] abbreviates: dose: 100.0 mg/kg/injection, schedule: Q04DX003 (ip), vehicle: Klucel (hydroxypropylcellulose) (HPC).
Setting [5] is: dose: 200.0 mg/kg/injection, schedule: Q04DX003 (ip), vehicle: Klucel (hydroxypropylcellulose) (HPC).
Where [6] appears, read: dose: 50.0 mg/kg/injection, schedule: Q01DX005 (ip), vehicle: Klucel (hydroxypropylcellulose) (HPC).
Setting [7] is: dose: 100.0 mg/kg/injection, schedule: Q01DX005 (ip), vehicle: Klucel (hydroxypropylcellulose) (HPC).

In the case of `Cn1c(=O)c2ccccc2c2ccccc21`, the T/C reads like this: under setting [1], 96 % of control; under setting [2], 96 % of control; under setting [3], 95 % of control; (dose: 400.0 mg/kg/injection, schedule: Q01DX009 (ip), vehicle: saline with Tween-80) 99 % of control.

With `CCN(CC)CCCC(C)Nc1ncnc2ccc(OC)cc12` (configuration not stated), the T/C by setting is: (dose: 50.0 mg/kg/injection, schedule: Q01DX005 (ip), vehicle: saline) 94 % of control; (dose: 100.0 mg/kg/injection, schedule: Q01DX005 (ip), vehicle: saline) 99 % of control; (dose: 200.0 mg/kg/injection, schedule: Q01DX005 (ip), vehicle: saline) 94 % of control.

Take `CNc1nc(=O)n(-c2ccccc2)c(Cl)c1CCO`: the T/C by setting is: (dose: 75.0 mg/kg/injection, schedule: Q01DX001 (ip), vehicle: Klucel (hydroxypropylcellulose) (HPC)) 104 % of control; (dose: 150.0 mg/kg/injection, schedule: Q01DX001 (ip), vehicle: Klucel (hydroxypropylcellulose) (HPC)) 101 % of control; (dose: 300.0 mg/kg/injection, schedule: Q01DX001 (ip), vehicle: Klucel (hydroxypropylcellulose) (HPC)) 100 % of control.

Take `[N-]=[N+]=CC(=O)C1(c2ccccc2)OC1c1ccc([N+](=O)[O-])cc1` (configuration not stated): the T/C by setting is: (dose: 12.5 mg/kg/injection, schedule: Q01DX001 (ip), vehicle: saline with Tween-80) 94 % of control; (dose: 25.0 mg/kg/injection, schedule: Q01DX001 (ip), vehicle: saline with Tween-80) 93 % of control; (dose: 50.0 mg/kg/injection, schedule: Q01DX001 (ip), vehicle: saline with Tween-80) 86 % of control and 95 % of control.

As for `O=S1(=O)C(c2ccc(F)cc2)=C(O)c2cc3ccccc3nc21`, the T/C was 112 % of control under setting [1] and 97 % of control under setting [2].

Consider `CC1CC=C(C(=O)N2CCOCC2)C1` (configuration not stated), for which the T/C reads like this: (dose: 50.0 mg/kg/injection, schedule: Q04DX003 (ip), vehicle: Klucel (hydroxypropylcellulose) (HPC)) 103 % of control; under setting [4], 105 % of control; under setting [5], 101 % of control.

For the compound `O=C1/C(=C\c2ccccc2)C/C1=C\c1ccccc1`, the T/C under setting [4] is 97 % of control; the T/C under setting [5] was 100 % of control; the T/C (dose: 400.0 mg/kg/injection, schedule: Q04DX003 (ip), vehicle: Klucel (hydroxypropylcellulose) (HPC)) was 95 % of control.

As for `[CH3][Sn]([CH3])([O]C(=O)c1ccccc1)[O]C(=O)c1ccccc1`, the T/C is 107 % of control under setting [6] and 108 % of control under setting [7].

Take `Cn1cnc([N+](=O)[O-])c1S(N)(=O)=O`: the T/C was 88 % of control under setting [2] and 123 % of control under setting [3].

Regarding `C=C(CN1CCCC1)C(=O)c1ccc(OC)cc1`, the T/C by setting is: (dose: 0.93 mg/kg/injection, schedule: Q01DX005 (ip), vehicle: saline) 97 % of control; (dose: 1.87 mg/kg/injection, schedule: Q01DX005 (ip), vehicle: saline) 117 % of control; (dose: 3.75 mg/kg/injection, schedule: Q01DX005 (ip), vehicle: saline) 108 % of control.

Regarding `COC(=O)C1=CC(=O)N2C(=Nc3cccc4cccc2c34)S1`, the T/C (dose: 6.25 mg/kg/injection, schedule: Q01DX005 (ip), vehicle: saline with Tween-80) was 91 % of control; the T/C (dose: 12.5 mg/kg/injection, schedule: Q01DX005 (ip), vehicle: saline with Tween-80) was 94 % of control; the T/C (dose: 25.0 mg/kg/injection, schedule: Q01DX005 (ip), vehicle: saline with Tween-80) is 103 % of control; the T/C (dose: 100.0 mg/kg/injection, schedule: Q01DX005 (ip), vehicle: saline with Tween-80) is 99 % of control; the T/C (dose: 200.0 mg/kg/injection, schedule: Q01DX005 (ip), vehicle: saline with Tween-80) is 103 % of control.

Turning to `CC(C)(C)C(=O)CC(=O)C(F)(F)C(F)(F)C(F)(F)F.CC(C)(C)C(=O)CC(=O)C(F)(F)C(F)(F)C(F)(F)F.CC(C)(C)C(=O)CC(=O)C(F)(F)C(F)(F)C(F)(F)F.[Eu]`, the T/C runs as follows: (dose: 60.0 mg/kg/injection, schedule: Q01DX005 (ip), vehicle: Klucel + Tween-80) 99 % of control; (dose: 120.0 mg/kg/injection, schedule: Q01DX005 (ip), vehicle: Klucel + Tween-80) 98 % of control; (dose: 240.0 mg/kg/injection, schedule: Q01DX005 (ip), vehicle: Klucel + Tween-80) 98 % of control.

With `CC(C)N(C(C)C)P1(=NC(C)(C)C)N(C(C)(C)C)P(=NC(C)(C)C)(N(C(C)C)C(C)C)N1C(C)(C)C` (configuration not stated), the T/C was 107 % of control (dose: 12.5 mg/kg/injection, schedule: Q01DX005 (ip), vehicle: Klucel (hydroxypropylcellulose) (HPC)); 104 % of control (dose: 25.0 mg/kg/injection, schedule: Q01DX005 (ip), vehicle: Klucel (hydroxypropylcellulose) (HPC)); 100 % of control and 102 % of control under setting [6]; 102 % of control under setting [7].

In the case of `CCOC(=O)C1C(c2cc(OC)c(OC)c(OC)c2)c2cc3c(cc2OC1(C)OC)OCO3` (configuration not stated), the T/C (dose: 60.0 mg/kg/injection, schedule: Q01DX005 (ip), vehicle: saline with Tween-80) was 86 % of control; the T/C (dose: 120.0 mg/kg/injection, schedule: Q01DX005 (ip), vehicle: saline with Tween-80) was 86 % of control; the T/C (dose: 240.0 mg/kg/injection, schedule: Q01DX005 (ip), vehicle: saline with Tween-80) was 88 % of control.

Turning to `COC(=O)C1(C)C(OC(C)=O)CC2C3C(CC4CC(OC(C)=O)CCC42C)OC(=O)CC31` (configuration not stated), the T/C is, setting by setting: (dose: 0.25 mg/kg/injection, schedule: Q01DX009 (ip), vehicle: distilled water + Tween-80) 99 % of control; (dose: 0.5 mg/kg/injection, schedule: Q01DX009 (ip), vehicle: distilled water + Tween-80) 101 % of control; (dose: 1.0 mg/kg/injection, schedule: Q01DX009 (ip), vehicle: distilled water + Tween-80) 102 % of control; (dose: 2.0 mg/kg/injection, schedule: Q01DX009 (ip), vehicle: distilled water + Tween-80) 104 % of control; (dose: 4.0 mg/kg/injection, schedule: Q01DX009 (ip), vehicle: distilled water + Tween-80) 100 % of control and 104 % of control; (dose: 8.0 mg/kg/injection, schedule: Q01DX009 (ip), vehicle: distilled water + Tween-80) 106 % of control and 111 % of control. Moreover, the T/C was 94 % of control (dose: 16.0 mg/kg/injection, schedule: Q01DX009 (ip), vehicle: distilled water + Tween-80); 87 % of control (dose: 32.0 mg/kg/injection, schedule: Q01DX009 (ip), vehicle: distilled water + Tween-80); 100 % of control (dose: 64.0 mg/kg/injection, schedule: Q01DX009 (ip), vehicle: distilled water + Tween-80).

With `C=CCOc1cc2c(cc1OCC=C)C(=O)c1cc3c(cc1C2=O)OCO3`, the T/C is, setting by setting: (dose: 7.5 mg/kg/injection, schedule: Q01DX005 (ip), vehicle: saline with Tween-80) 95 % of control; (dose: 15.0 mg/kg/injection, schedule: Q01DX005 (ip), vehicle: saline with Tween-80) 93 % of control.

With `CCCCCCOCCN1CCN(CCCN2c3ccccc3Sc3ccc(C(F)(F)F)cc32)CC1`, where the note is “dose: 3.12 mg/kg/injection, schedule: Q01DX009 (ip), vehicle: saline with Tween-80”, the T/C was 100 % of control.

Consider `N#CSc1ccc2nc(NCO)sc2c1`, for which the T/C was 104 % of control (dose: 50.0 mg/kg/injection, schedule: Q01DX009 (ip), vehicle: Klucel (hydroxypropylcellulose) (HPC)) and 101 % of control (dose: 100.0 mg/kg/injection, schedule: Q01DX009 (ip), vehicle: Klucel (hydroxypropylcellulose) (HPC)).

Turning to `COc1cccc2c1C(=O)c1c(O)c3c(c(O)c1C2=O)CC(O)(C(C)=O)CC3OC1CC(N)C(OC2CC(N)C(O)C(C)O2)C(C)O1` (configuration not stated), the T/C by setting is: (dose: 0.39 mg/kg/injection, schedule: Q01DX009 (ip), vehicle: water) 116 % of control; (dose: 1.56 mg/kg/injection, schedule: Q01DX009 (ip), vehicle: water) 150 % of control; (dose: 3.13 mg/kg/injection, schedule: Q01DX009 (ip), vehicle: water) 161 % of control and 196 % of control; (dose: 3.13 mg/kg/injection, schedule: Q04DX003 (ip), vehicle: water) 112 % of control; (dose: 6.25 mg/kg/injection, schedule: Q01DX009 (ip), vehicle: water) 113 % of control and 116 % of control; (dose: 6.25 mg/kg/injection, schedule: Q04DX003 (ip), vehicle: water) 103 % of control. The T/C (dose: 12.5 mg/kg/injection, schedule: Q01DX009 (ip), vehicle: water) is 114 % of control and 86 % of control; the T/C (dose: 12.5 mg/kg/injection, schedule: Q04DX003 (ip), vehicle: water) was 103 % of control; the T/C (dose: 25.0 mg/kg/injection, schedule: Q04DX003 (ip), vehicle: water) is 121 % of control; the T/C (dose: 50.0 mg/kg/injection, schedule: Q04DX003 (ip), vehicle: water) is 112 % of control.
